45 molecules from US10059723B2 (BIOMARIN PHARMACEUTICAL INC., priority 2011, dated 2018) can be followed below.

Molecules are shown by their SMILES. pIC50: −log10 of the molar value.

One data set concerns HCT116 cells. As to the kind of experiment: Cell proliferation assay. Type of data set: cell-based. Particulars: Homo sapiens, HCT-116, 72 h, read-out: Hct-116 (anti-proliferation IC50). As to the method:
HCT116 cells (5000 cells/well) in 80 μL McCoy's 5A medium containing 10% v/v FBS, 1% v/v penicillin/streptomycin and 1% v/v L-glutamine were incubated in 96-well plates with compounds at various concentrations for 72 h at 37° C. in a 5% CO2 atmosphere. The compound dilutions were made in 100% DMSO followed by parallel dilutions in media. The final concentration of DMSO in each well was 0.05%. After 72 h, 20 μL of Cell titer 96 aqueous one solution (Promega Corporation, Madison, Wis.) were added to the cells and the plate was incubated at 37° C. for another 4 h. The absorbance at 490 nm was then recorded on a 96-well plate reader (Spectramax M2, Molecular Devices, Sunnyvale, Calif.). Data analysis was performed in Microsoft Excel (Microsoft Corp, Redmond, Wash.).

For data set [1], the system named is GM 15850 (lymphoblastoid cells line) cells. As to the kind of experiment: In-cell deacetylase inhibition assay (DAC assay). Type of data set: cell-based. Particulars: Homo sapiens, GM15850; GM 15850 cells, 4 h incubation; read-out: 850 DAC (in-cell deacetylase inhibition IC50). As to the method: Compound dilutions were made in 100% DMSO followed by parallel dilution in media with 2% DMSO. 10 μl of the compound dilutions were added to the cells to achieve the desired concentrations. The final concentration of DMSO in each well was 0.2%. The cells were incubated for 4 h at 37° C. with 5% CO2. After incubation, the cells were centrifuged down and the supernatant was removed. […] The reaction was stopped after 30 min incubation by addition of 50 μL developer (6 mg/mL trypsin in HDAC assay buffer). The reaction was allowed to develop for 30 min at room temperature and the fluorescence signal was detected using a fluorometer (Spectramax M2, Molecular Devices, Sunnyvale, Calif.) with excitation and emission wavelengths of 360 nm and 470 nm respectively. The data was fitted to a sigmoidal dose response equation with variable slope in GraphPad Prism 5.0 (GraphPad Software, La Jolla, Calif.) to determine IC50. Bottom and top of the curve were fixed to the average fluorescence response of control wells with no cells and cells but no compound respectively.

Data set [2] can be described thus: Brain penetration studies.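 Note: compound levels in brain and plasma quantified by LC/MS/MS, sampled from pre-dose up to 4 h after dosing, three mice per dose and time point.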 Type of data set: in vivo. The following applies: C57/BL6/J, mouse, brain and plasma; mice, s.c. 5 or 50 mg/kg or i.v. 5 mg/kg; read-out: BPR (brain/plasma ratio, Cmax(brain)/Cmax(plasma)).
Procedure: Test compounds were prepared at either 0.5 mg/ml or 5 mg/ml in 30% hydroxypropyl-β-cyclodextrin, 100 mM sodium acetate pH 5.5, 5% DMSO. C57/BL6/J mice were dosed s.c. at 5 mg/kg or 50 mg/kg, or i.v. at 5 mg/kg. Animals were euthanized at pre-dose, 5, 15, 30 min, 1, 2 and 4 hours post-dose and plasma and brain obtained. Three animals per dose per time points were used. The levels of compound in the plasma and brain were determined by standard LC/MS/MS methods. Brain/plasma ratio (BPR) was calculated as the ratio of the Cmax(brain)/Cmax(plasma).
For the next data set, the system named is C57BL/6J male mice. As to the kind of experiment: Long term memory for object recognition. It is filed as in vivo. The following applies: s.c. 3, 10, 30 mg/kg. As to the method: C57BL/6J male mice were handled 1-2 min for 5 days and were habituated to the experimental apparatus 5 min a day for 4 consecutive days in the absence of objects. […] 24-h later mice were tested for memory retention (5 min) using the object recognition memory task (ORM), in which a familiar object was replaced with a novel one. All training and testing trials were videotaped and analyzed by individuals blind to the treatment condition and the genotype of subjects. A mouse was scored as exploring an object when its head was oriented toward the object within a distance of 1 cm or when the nose was touching the object. The relative exploration time was recorded and expressed by a discrimination index [DI=(tnovel−tfamiliar)/(tnovel+tfamiliar)×100].

For `Nc1ccccc1NC(=O)/C=C/c1cnc2ccccn12` [A6, (E)-N-(2-aminophenyl)-3-(imidazo[1,2-a]pyridin-3-yl)acrylamide], the pIC50 was 4.70 to 5.00 in the data set with HCT116 cells and < 4.70 in data set [1]. Further, in data set [2], the Kp was 0.1 to 0.2.

As to `Cn1cnc(/C=C/C(=O)Nc2ccccc2N)c1` [A12], in data set [1], the pIC50 is < 4.70.

Regarding `Nc1ccccc1NC(=O)/C=C/c1cnn(CC/C=C/c2ccccc2)c1` [D11], the pIC50 in data set [1] was 5.30 to 6.00. Moreover, in data set [2], the Kp was > 1.

Regarding `Nc1ccccc1NC(=O)c1ccc(C=C2CCN(Cc3cccnc3)CC2)cc1` [F2], the pIC50 is > 5.30 with HCT116 cells and 4.70 to 5.00 in data set [1]. For the same molecule, the Kp in data set [2] was > 1.

As for `Nc1ccccc1NC(=O)c1ccc(C=C2CN(Cc3cccnc3)C2)c(Cl)c1` [F6], the pIC50 in data set [1] is 4.70 to 5.00.

Consider `Nc1ccccc1NC(=O)c1ccc(C=C2CN(Cc3ccc4cc[nH]c4c3)C2)cc1` [F3], for which the figures for the pIC50 (with HCT116 cells; in data set [1]) were > 5.30 and 5.30 to 6.00, respectively. Also, in data set [2], the Kp is 0.2 to 0.5.

As for `Cn1cc(/C=C/C(=O)Nc2ccccc2N)cn1` [A2], the pIC50 in the data set on HCT116 cells is < 4.70; in data set [1] it was 4.70 to 5.00. The Kp in data set [2] fell in the range of 0.5 to 1.

For the molecule `CN1CCC(Cn2cc(/C=C/C(=O)Nc3ccccc3N)cn2)CC1` [G1, (E)-N-(2-aminophenyl)-3-(1-((1-methylpiperidin-4-yl)methyl)-1H-pyrazol-4-yl)acrylamide], the pIC50 in the data set with HCT116 cells was < 4.70.

Take `Nc1ccccc1NC(=O)/C=C/c1cnn(CCCOc2ccccc2)c1` [D15]: the pIC50 in data set [1] was 5.30 to 6.00.

Consider `Cc1ncc(/C=C/C(=O)Nc2ccccc2N)s1` [A3], for which the pIC50 in data set [1] is < 4.70.

On to `Cc1nc(/C=C/C(=O)Nc2ccccc2N)cs1` [A1], for which the pIC50 in data set [1] is < 4.70. Also, the Kp in data set [2] is 0.5 to 1.

With `Nc1ccccc1NC(=O)/C=C/c1cnn(CCOc2ccc(C(F)(F)F)cc2)c1` [B4], in data set [1], the pIC50 is 4.70 to 5.00. Besides, the Kp in data set [2] fell in the range of 0.2 to 0.5.

Consider `Nc1cc(F)ccc1NC(=O)/C=C/c1cnn(C/C=C/c2ccccc2)c1` [D2, (E)-N-(2-amino-4-fluorophenyl)-3-(1-cinnamyl-1H-pyrazol-4-yl)acrylamide], for which the pIC50 (in the data set on HCT116 cells; in data set [1]) was < 4.70 in each case. Also, the “dose dependence of the effect on long-term memory” value with C57BL/6J male mice is given as “no effect of dose”. Further, the Kp in data set [2] was 0.2 to 0.5.

Regarding `Nc1ccccc1NC(=O)/C=C/c1cnn(CC(F)(F)c2ccccc2)c1` [D10], the pIC50 with HCT116 cells is < 4.70; in data set [1] it was 5.00 to 5.30. The Kp in data set [2] was in the range of 0.5 to 1.

Take `Cn1cc(/C=C/C(=O)Nc2cc(F)ccc2N)cn1` [C3]: the pIC50 in data set [1] was < 4.70.

In the case of `Cc1nn(C/C=C/c2ccccc2)c(C)c1/C=C/C(=O)Nc1ccccc1N` [G2, (E)-N-(2-aminophenyl)-3-(1-cinnamyl-3,5-dimethyl-1H-pyrazol-4-yl)acrylamide], the pIC50 in the data set with HCT116 cells was < 4.70.

`CN(CCCn1cc(/C=C/C(=O)Nc2ccccc2N)cn1)c1ccccc1` [D12]: the pIC50 in data set [1] was 5.30 to 6.00. In addition, the Kp in data set [2] lay in the range of 0.5 to 1.

`Nc1ccccc1NC(=O)/C=C/c1cnn(CCCc2ccccc2)c1` [D8]: the pIC50 was > 5.30 with HCT116 cells and 5.30 to 6.00 in data set [1]. Moreover, the Kp in data set [2] lay in the range of 0.2 to 0.5.

Take `Nc1ccccc1NC(=O)/C=C/c1cnn(CCOc2ccc(F)cc2)c1` [B6]: the pIC50 in data set [1] was 5.00 to 5.30.

As for `Nc1ccccc1NC(=O)/C=C/c1cnn(Cc2ccc(F)cc2)c1` [D5], the results for the pIC50 (in the data set on HCT116 cells; in data set [1]) were < 4.70 and 5.00 to 5.30, respectively. For the same molecule, in data set [2], the Kp fell in the range of 0.1 to 0.2.

`Nc1ccccc1NC(=O)/C=C/c1cnn(CCc2ccccc2)c1` [D7]: the pIC50 in the data set with HCT116 cells is > 5.30; in data set [1], 5.00 to 5.30. In addition, the Kp in data set [2] lay in the range of 0.5 to 1.

As for `Nc1ccccc1NC(=O)/C=C/c1cnn(C/C=C/c2ccc(F)cc2)c1` [B2], in data set [1], the pIC50 is 5.00 to 5.30.

For `Nc1ccccc1NC(=O)c1ccc(C=C2CCN(C(=O)OCc3ccccc3)CC2)cc1` [F1], the pIC50 in data set [1] is < 4.70. Further, in data set [2], the Kp is < 0.1.

Turning to `Nc1ccccc1NC(=O)/C=C/c1cnn(CCOc2ccccc2)c1` [D3, (E)-N-(2-aminophenyl)-3-(1-(2-phenoxyethyl)-1H-pyrazol-4-yl)acrylamide], the pIC50 in the data set with HCT116 cells was > 5.30; in data set [1], 5.30 to 6.00. In data set [2], the Kp is 0.2 to 0.5.

As to `Cc1cccc(Cn2cc(/C=C/C(=O)Nc3ccccc3N)cn2)n1` [D6], the pIC50 is < 4.70 with HCT116 cells and 4.70 to 5.00 in data set [1]. Besides, in data set [2], the Kp is < 0.1.

Consider `Nc1ccccc1NC(=O)/C=C/c1cn2ccccc2n1` [A9], for which, in data set [1], the pIC50 was < 4.70.

Regarding `Nc1ccccc1NC(=O)/C=C/c1cn2ccnc2s1` [A10], the pIC50 in data set [1] is 4.70 to 5.00. Also, in data set [2], the Kp was in the range of 0.2 to 0.5.

With `Nc1cc(F)ccc1NC(=O)/C=C/c1cnn(CCOc2ccccc2)c1` [D16], in data set [1], the pIC50 was 4.70 to 5.00.

In the case of `Nc1ccccc1NC(=O)/C=C/c1cnn(CC2CC2)c1` [B1], the pIC50 in data set [1] was 4.70 to 5.00.

As to `CCOCc1cn2cc(/C=C/C(=O)Nc3ccccc3N)sc2n1` [E1, (E)-N-(2-aminophenyl)-3-(6-(ethoxymethyl)imidazo[2,1-b]thiazol-2-yl)acrylamide], the pIC50 in data set [1] was < 4.70.

`Nc1ccccc1NC(=O)/C=C/c1cc2ccccn2n1` [A8]: the pIC50 in data set [1] was 4.70 to 5.00. Also, in data set [2], the Kp was in the range of 0.5 to 1.

Regarding `Nc1ccccc1NC(=O)c1ccc(C=C2CN(Cc3ccc4cc[nH]c4c3)C2)c(Cl)c1` [F5, 4-((1-((1H-Indol-6-yl)methyl)azetidin-3-ylidene)methyl)-N-(2-aminophenyl)-3-chlorobenzamide], in data set [1], the pIC50 is 5.00 to 5.30.

For the molecule `Nc1ccccc1NC(=O)/C=C/c1cnn(Cc2ccccc2)c1` [D4], the pIC50 with HCT116 cells is < 4.70; in data set [1] it was 5.00 to 5.30. Also, in data set [2], the Kp lay within 0.2 to 0.5.

Take `Nc1ccccc1NC(=O)/C=C/c1cnn(CCOc2cc(F)cc(F)c2)c1` [B3, (E)-N-(2-aminophenyl)-3-(1-(2-(3,5-difluorophenoxy)ethyl)-1H-pyrazol-4-yl)acrylamide]: in data set [1], the pIC50 is 5.30 to 6.00. In data set [2], the Kp fell in the range of 0.2 to 0.5.

On to `Nc1ccccc1NC(=O)c1ccc(CC2CN(Cc3ccc4cc[nH]c4c3)C2)cc1` [F4], for which the figures for the pIC50 (with HCT116 cells; in data set [1]) were > 5.30 and 5.30 to 6.00, respectively. In data set [2], the Kp fell in the range of 0.5 to 1.

`Nc1ccccc1NC(=O)/C=C/c1cnn(CCOc2cc(F)cc(Cl)c2)c1` [B5, (E)-N-(2-aminophenyl)-3-(1-(2-(3-chloro-5-fluorophenoxy)ethyl)-1H-pyrazol-4-yl)acrylamide]: in data set [1], the pIC50 was 5.00 to 5.30. In addition, the Kp in data set [2] is 0.2 to 0.5.

For `Cn1ccc(/C=C/C(=O)Nc2ccccc2N)n1` [A7], the pIC50 in data set [1] was < 4.70. In addition, in data set [2], the Kp was in the range of 0.5 to 1.

Consider `Cc1ccc(C(=O)NCCCCCC(=O)Nc2ccc(F)cc2N)cc1` [RGFP 136, reference compound], for which, in the data set on C57BL/6J male mice, the “dose dependence of the effect on long-term memory” value was “Dose dependent effects”.

For `Nc1ccccc1NC(=O)/C=C/c1csc(CC=Cc2ccccc2)n1` [E2, (E)-N-(2-aminophenyl)-3-(2-cinnamylthiazol-4-yl)acrylamide], the pIC50 in the data set with HCT116 cells is < 4.70; in data set [1], 4.70 to 5.00. In data set [2], the Kp was > 1.

As for `Nc1ccccc1NC(=O)/C=C/c1cnn(-c2ccccc2)c1` [A11], the Kp in data set [2] is > 1.

For `Nc1ccccc1NC(=O)/C=C/c1cnn(CCOCc2ccccc2)c1` [D14], the pIC50 in data set [1] is 5.00 to 5.30.

Regarding `Cc1cc(/C=C/C(=O)Nc2ccccc2N)on1` [A5], the Kp in data set [2] was 0.2 to 0.5.

`Nc1ccccc1NC(=O)/C=C/c1cnn(CCCCc2ccccc2)c1` [D9]: the pIC50 with HCT116 cells was 5.00 to 5.30; in data set [1] it was 5.30 to 6.00. Also, the Kp in data set [2] lay within 0.5 to 1.

Take `CCn1cc(/C=C/C(=O)Nc2ccccc2N)cn1` [C1]: the pIC50 in data set [1] was < 4.70. Moreover, in data set [2], the Kp lay in the range of 0.5 to 1.

For `Nc1ccccc1NC(=O)/C=C/c1cnn(CCc2c[nH]c3ccccc23)c1` [D13], the pIC50 in data set [1] is 5.30 to 6.00. For the same molecule, the Kp in data set [2] was < 0.1.
